{"source": "patent US9029553B2", "about": "“2-anilino nicotinyl linked 2-amino benzothiazole conjugates and process for the preparation thereof” (Council of Scientific & Industrial Research, priority 2011, dated 2015)", "key": {"[1]": {"system": "HL-60 cells", "test": "Loss of mitochondrial membrane potential (Rh-123 uptake)", "format": "cell-based, human", "conditions": "1 μM, 48 h", "method": "Rhodamine-123 uptake into mitochondria is driven by mitochondrial Transmembrane potential (Ψmt) that allows the determination of cell population with active integrated mitochondrial functions. Loss of Ψmt leads to depolarization of mitochondrial membranes leading to collapse of mitochondrial functions ensuing cell death. The loss of Ψmt indicated the loss of mitochondrial integrity to couple electrons to energy production. HL-60 cells exposed to tested compounds for 48 h at 1 μM were analyzed for Rh-123 uptake by flow cytometry. The percentage of cells with low Rh-123 quantum fluorescence indicative of loss of Ψmt was calculated among the total acquired cell events (10,000). In the untreated control cells, more than 90% cells were functionally active with high Rh-123 signals (FIG. 9)."}, "[2]": {"system": "HL-60", "test": "MTT inhibition of cell proliferation", "format": "cell-based", "conditions": "Homo sapiens, 48 h", "description": "(§1) In order to determine the mode of action of cell death in cancer cells, first we explored the cytotoxic potential of different structural analogs of benzothiazoles on different human cancer cell lines. […] These compounds have limited or no cytotoxicity to cervical cancer SiHa, HeLa cells, breast cancer MCF-7 cells and colon cancer HCT-15 cells."}, "[3]": {"system": "Hela", "test": "MTT inhibition of cell proliferation", "format": "cell-based", "conditions": "Homo sapiens, 48 h", "description": "as §1"}, "[4]": {"system": "SiHa", "test": "MTT inhibition of cell proliferation", "format": "cell-based", "conditions": "Homo sapiens, 48 h", "description": "as §1"}, "[5]": {"system": "MCF-7", "test": "MTT inhibition of cell proliferation", "format": "cell-based", "conditions": "Homo sapiens, MCF7, 48 h", "description": "as §1"}, "[6]": {"system": "HCT-15", "test": "MTT inhibition of cell proliferation", "format": "cell-based", "conditions": "Homo sapiens, 48 h", "description": "as §1"}, "[7]": {"system": "OVCAR-5", "test": "SRB percentage growth inhibition (NCI protocol)", "format": "cell-based", "conditions": "Homo sapiens, 48 hrs exposure", "method": "(§2) 2-Anilino nicotinyl linked 2-amino benzothiazoles conjugates of formula 4-8 have been tested against ten and eleven human cancer cell lines for 10 and 1 μM respectively derived from nine cancer types (leukemia, non-small cell lung cancer, colon cancer, CNS cancer, melanoma, ovarian cancer, renal cancer, prostate cancer and breast cancer) as per NCI protocol. For each compound, percentage of growth inhibition was calculated for individual cell lines at a minimum of two concentrations (1 and 10 μM). A protocol of 48 hrs continuous drug exposure was used, and a sulforhodamine B (SRB) protein assay was used to estimate cell viability or growth. The percentage of growth inhibition compared with the control was calculated in table 1 and table 2."}, "[8]": {"system": "DU145", "test": "SRB percentage growth inhibition (NCI protocol)", "format": "cell-based", "conditions": "Homo sapiens, DU-145, 48 hrs exposure", "method": "as §2"}, "[9]": {"system": "A549", "test": "SRB percentage growth inhibition (NCI protocol)", "format": "cell-based", "conditions": "Homo sapiens, 48 hrs exposure", "method": "as §2"}, "[10]": {"system": "IGR-OV-1", "test": "SRB percentage growth inhibition (NCI protocol)", "format": "cell-based", "conditions": "Homo sapiens, IGROV-1, 48 hrs exposure", "method": "as §2"}, "[11]": {"system": "PC-3", "test": "SRB percentage growth inhibition (NCI protocol)", "format": "cell-based", "conditions": "Homo sapiens, 48 hrs exposure", "method": "as §2"}, "[12]": {"system": "HEP-2", "test": "SRB percentage growth inhibition (NCI protocol)", "format": "cell-based", "conditions": "Homo sapiens, 48 hrs exposure", "method": "as §2"}, "[13]": {"system": "SK-NS-H", "test": "SRB percentage growth inhibition (NCI protocol)", "format": "cell-based", "conditions": "Homo sapiens, SK-N-SH, 48 hrs exposure", "method": "as §2"}, "[14]": {"system": "SiHa", "test": "SRB percentage growth inhibition (NCI protocol)", "format": "cell-based", "conditions": "Homo sapiens, 48 hrs exposure", "method": "as §2"}, "[15]": {"system": "IMR-32", "test": "SRB percentage growth inhibition (NCI protocol)", "format": "cell-based", "conditions": "Homo sapiens, 48 hrs exposure", "method": "as §2"}, "[16]": {"system": "MCF-7", "test": "SRB percentage growth inhibition (NCI protocol)", "format": "cell-based", "conditions": "Homo sapiens, MCF7, 48 hrs exposure", "method": "as §2"}, "[17]": {"system": "502713", "test": "SRB percentage growth inhibition (NCI protocol)", "format": "cell-based", "conditions": "Homo sapiens, 48 hrs exposure", "method": "as §2"}, "[18]": {"system": "HCT-15", "test": "SRB percentage growth inhibition (NCI protocol)", "format": "cell-based", "conditions": "Homo sapiens, 10 μM, 48 hrs exposure", "method": "as §2"}, "[19]": {"system": "Sw-620", "test": "SRB percentage growth inhibition (NCI protocol)", "format": "cell-based", "conditions": "Homo sapiens, 48 hrs exposure", "method": "as §2"}}, "data": [{"smiles": "O=C(Nc1nc2ccc([N+](=O)[O-])cc2s1)c1cccnc1Nc1cc(F)c(F)c(F)c1", "note": "[Compound 8, N3-(6-nitro-1,3-benzothiazol-2-yl)-2-[(3,4,5-trifluorophenyl)amino]-3-pyridine carboxamide]", "values": [{"measurement": "loss of mitochondrial membrane potential", "setting": "[1]", "result": 45, "unit": "%"}, {"measurement": "IC50", "setting": "[2]", "result": 0.08, "unit": "µM"}, {"measurement": "IC50", "setting": "[3]", "result": "> 100", "unit": "µM"}, {"measurement": "IC50", "setting": "[4]", "result": 36, "unit": "µM"}, {"measurement": "IC50", "setting": "[5]", "result": "> 100", "unit": "µM"}, {"measurement": "IC50", "setting": "[6]", "result": "> 100", "unit": "µM"}, {"measurement": "inhibition at 1 µM", "setting": "[7]; 1 μM", "result": 37, "unit": "%"}, {"measurement": "inhibition at 10 µM", "setting": "[7]; 10 μM", "result": 52, "unit": "%"}, {"measurement": "inhibition at 1 µM", "setting": "[8]; 1 μM", "result": 58, "unit": "%"}, {"measurement": "inhibition at 10 µM", "setting": "[8]; 10 μM", "result": 39, "unit": "%"}, {"measurement": "inhibition at 1 µM", "setting": "[9]; 1 μM", "result": 27, "unit": "%"}, {"measurement": "inhibition at 10 µM", "setting": "[9]; 10 μM", "result": 27, "unit": "%"}, {"measurement": "inhibition at 1 µM", "setting": "[10]", "result": 42, "unit": "%"}, {"measurement": "inhibition at 1 µM", "setting": "[11]", "result": 41, "unit": "%"}, {"measurement": "inhibition at 1 µM", "setting": "[12]; 1 μM", "result": 49, "unit": "%"}, {"measurement": "inhibition at 10 µM", "setting": "[12]; 10 μM", "result": 0, "unit": "%"}, {"measurement": "inhibition at 10 µM", "setting": "[13]", "result": 49, "unit": "%"}, {"measurement": "inhibition at 10 µM", "setting": "[14]", "result": 70, "unit": "%"}, {"measurement": "inhibition at 1 µM", "setting": "[15]; 1 μM", "result": 48, "unit": "%"}, {"measurement": "inhibition at 10 µM", "setting": "[15]; 10 μM", "result": 72, "unit": "%"}, {"measurement": "inhibition at 1 µM", "setting": "[16]", "result": 46, "unit": "%"}, {"measurement": "inhibition at 10 µM", "setting": "[17]", "result": 80, "unit": "%"}, {"measurement": "inhibition at 10 µM", "setting": "[18]", "result": 62, "unit": "%"}, {"measurement": "inhibition at 1 µM", "setting": "[19]; 1 μM", "result": 29, "unit": "%"}, {"measurement": "inhibition at 10 µM", "setting": "[19]; 10 μM", "result": 70, "unit": "%"}]}]}
